One assay deals with T1, IKKα (Homo sapiens, UniProt O15111).
T1 sequence (O15111 1-745): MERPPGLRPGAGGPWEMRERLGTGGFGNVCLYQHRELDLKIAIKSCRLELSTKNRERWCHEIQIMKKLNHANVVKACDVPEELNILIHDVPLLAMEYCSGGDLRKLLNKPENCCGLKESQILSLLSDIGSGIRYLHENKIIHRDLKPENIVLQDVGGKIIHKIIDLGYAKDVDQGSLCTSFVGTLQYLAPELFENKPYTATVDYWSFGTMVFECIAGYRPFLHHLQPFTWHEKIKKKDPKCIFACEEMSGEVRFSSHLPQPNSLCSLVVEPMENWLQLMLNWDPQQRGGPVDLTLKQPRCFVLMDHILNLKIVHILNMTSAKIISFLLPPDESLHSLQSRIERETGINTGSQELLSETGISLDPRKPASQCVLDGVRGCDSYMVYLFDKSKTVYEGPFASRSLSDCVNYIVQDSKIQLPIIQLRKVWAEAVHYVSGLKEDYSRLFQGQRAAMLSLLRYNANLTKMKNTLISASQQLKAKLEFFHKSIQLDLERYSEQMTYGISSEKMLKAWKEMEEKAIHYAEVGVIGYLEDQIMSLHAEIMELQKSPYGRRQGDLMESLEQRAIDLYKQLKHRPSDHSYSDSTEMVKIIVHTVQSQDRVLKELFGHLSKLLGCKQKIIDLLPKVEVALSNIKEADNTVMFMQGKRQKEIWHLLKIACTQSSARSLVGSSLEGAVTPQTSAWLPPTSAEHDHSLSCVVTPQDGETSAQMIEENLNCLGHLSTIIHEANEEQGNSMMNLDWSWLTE
The assay can be described thus: DELFIA kinase assay, IKKα. It is filed as biochemical. As to conditions: for Ki: DELFIA kinase assay; for Selectivity for IKKα over IKKβ: ratio of Ki IKKβ to Ki IKKα. The text has this:
To examine the pyrrolo[2,3-b]pyridines as an alternative scaffold, we adopted the AIPP core because it had similar dimensions to SU909 (1), with HBD/HBA motifs positioned at the scaffold extremities to interact with both the hinge region and the G-loop wall of IKKα, a rationale we had previously proposed as the basis for imparting selectivity. A preliminary set of AIPP derivatives was designed and synthesised to explore its utility as an IKK-targeting scaffold, whilst incorporating additional functionality through which to introduce selectivity for the IKKα isoform (2–4; Figure 3). This was achieved by initially adopting two different approaches: either appending a hydrophobic moiety to the pyrrolo[2,3-b]pyridine motif as a fused form to afford the tricyclic derivatives 2 and 3, or as a phenyl substituent to introduce flexibility with respect to the central pyrrolo[2,3-b]pyridine moiety in 4. When assessed against IKKα and IKKβ using our in-house DELFIA kinase assay […] The pyrrolo[2,3-b]pyridine was bound to the hinge region in the classical HBA/HBD motif with the GK+3 amide backbone, whilst the aminoindazole projected towards the top of the pocket to interact with the G-loop (Figure 4A). […] In both isoforms, the 2-phenyl moiety protruded away from the hinge towards the exposed solvent area.
IKKα and IKKβ inhibitory activity were determined using a dissociation-enhanced ligand fluorescent immunoassay (DELFIA) based on the protocol of HTScan™ IKKβ Kinase Assay (Cell Signaling Technology, Danvers, MA, USA) as described in [24].

Assay [1] relates to IKKβ-mediated IκBα degradation in U2OS cells. The assay can be described thus: TNFα-stimulated IκBα degradation, Western blotting. Conditions: for effect on TNFα-stimulated IκBα degradation: 0.3–30 µM. It is filed as cell-based. Here is the method: To assess the translation of the biochemical potencies and selectivities described above to a cell-based setting, exemplars from the series were initially examined for inhibitory action against IKKs in the U2OS osteosarcoma cell line. This cell type was utilised to represent cells with a proliferative phenotype dependent on the constitutively activated IKKα-mediated non-canonical NF-κB pathway. Compounds 5r [SU1261]
U2OS cells were cultured in McCoy’s 5A Modified Medium, and PC-3M-Luc-C6 prostate cancer cells were cultured in Minimum Essential Medium (MEM), each containing 10% (v/v) Foetal Calf Serum (FCS), L-glutamine ([…]), and penicillin/streptomycin (250 units/mL; 100 μg/mL) and incubated in a humidified atmosphere at 37 °C with 5% (v/v) CO2. Cells were grown to near confluence and prior to experimentation rendered quiescent by serum deprivation for 24 h.
To examine the potential impact of compounds on canonical NF-κB signalling, cells were then exposed to vehicle (DMSO; 0.05% (v/v)) or increasing concentrations of compounds (0.01–30 µM) for 1 h prior to treatment with TNF⍺ (20 ng/mL) for 30 min. Whole-cell extracts were prepared, and the status of IκB⍺, phospho-p65 (Ser536), p65, and phospho-p105 ([…]) was also assessed by Western blotting.
Each figure/panel of Western blotting data represents one of at least three separate experiments. Western blots were scanned and imaged using Adobe Photoshop 5.0.2 software and polypeptide bands were semi-quantified by scanning densitometry using the Scion Image program. Data were normalised to fold expression/inhibition relative to ‘agonist plus vehicle’ treatment and expressed as mean ± s.e.m. IC50 values were established by curve fitting using the Hill equation.
Figure 11 Compound 5r [SU1261] inhibits FCS-stimulated p100 phosphorylation (Ser866/870) with no impact on TNFα-stimulated IkBα degradation and limited impact on phosphorylation of p65 (Ser536) in U2OS osteosarcoma cells. […] (0.3–30 µM) for 1 h prior to treatment with FCS (10% (v/v)) for 4 h, and phospho-p100 (Ser866/870) was assessed by Western blotting. […]

Each structure is given as a SMILES string.

For the compound `Nc1n[nH]c2ccc(-c3ccnc4[nH]c(-c5ccnc(OCc6ccccc6)c5)cc34)cc12` [Compound 6g [SU1349]], the Ki at IKKα is 16 nM. In addition, the “Selectivity for IKKα over IKKβ” value at IKKα (listed as 6g [SU1349]) turned out to be 209 fold; on IKKα (listed as SU1349), 209.5 fold. In addition, the “effect on TNFα-stimulated IκBα degradation” value in assay [1] is “no significant inhibition”.
On to `Nc1n[nH]c2ccc(-c3ccnc4[nH]c(-c5cccc(OCc6ccccc6)c5)cc34)cc12` [Compound 5r [SU1261]], for which the Ki at IKKα is 10 nM. Also, the “effect on TNFα-stimulated IκBα degradation” value in assay [1] is reported as “did not impact”.
The compound `Nc1n[nH]c2ccc(-c3ccnc4[nH]c(-c5ccccc5)cc34)cc12` [Compound 4] had a Ki at IKKα of 3 nM. For the same compound, the half-maximal inhibitory concentration (IC50) in assay [1] (Homo sapiens, 1 h pre-treatment, TNFα 30 min) is 620 nM.

Source of the values: article PMC11314561, “Design and Synthesis of Novel Aminoindazole-pyrrolo[2,3-b]pyridine Inhibitors of IKKα That Selectively Perturb Cellular Non-Canonical NF-κB Signalling” (Molecules, 2024).
